Reference: patent publication US20250205268A1, “TREATMENT OF VIRUSES WITH ANTIVIRAL NUCLEOSIDES” (priority 2021, published 2025)

Experiments:
SARS-CoV-2 [1] = settings: in vivo
SARS-CoV-2 [2] = tested on: SARS-CoV-2

CC(C)C(=O)OC[C@H]1O[C@@H](n2ccc(NO)nc2=O)[C@H](O)[C@@H]1O [Compound A, {(2R,3S,4R,5R)-3,4-dihydroxy-5-[4-(hydroxyimino)-2-oxo-3,4-dihydropyrimidin-1 (2H)-yl]oxolan-2-yl}methyl 2-methylpropanoate]
participants hospitalized or died through Day 29 (SARS-CoV-2 [1]): ~3%
percentage of mutations in viral RNA post-treatment at Day 5 (SARS-CoV-2 [1]): highest percentage of mutations
mean SARS-CoV-2 viral RNA mutation rates per 10,000 nucleotides (SARS-CoV-2 [2]; 800 mg, end of therapy): 5.9 per 10,000 nucleotides
Drug-related adverse events (SARS-CoV-2 [2]; human, in vivo): 11.0%
